# Data as given in US6399542B1, “Alkoxyimino-substituted bicyclic compounds compositions containing the same and method of making such compounds” (Agro-Kanesho Co., Ltd., priority 1997, dated 2002).
# System: Puccinia recondita
# Assay: Effect on Wheat brown rust (preventive spray test)
# Format: in vivo
# Conditions: conc. of active ingredient 4 ppm, 7 days after inoculation
row,SMILES,Preventive rate (%)
1,CON=C1COc2cc(OCc3ccccc3/C(=N\OC)C(=O)OC)c(C)cc21 [a-26],100
2,CCON=C1COc2c1ccc(OCc1ccccc1/C(=N\OC)C(=O)NC)c2C [a-36],100
3,CCCON=C1COc2c1ccc(OCc1ccccc1/C(=N\OC)C(=O)NC)c2C [a-42],100
4,C#CCON=C1COc2c1ccc(OCc1ccccc1/C(=N\OC)C(=O)NC)c2C [a-71],100

# Same assay, conditions: conc. of active ingredient 20 ppm, 7 days after inoculation
row,SMILES,Preventive rate (%)
1,CNC(=O)C(OC)c1ccccc1COc1ccc2c(c1)OCC2=NOC (racemic) [a-11],88
2,CON=C1COc2cc(OCc3ccccc3/C(=N\OC)C(=O)OC)c(C)cc21 [a-26],100
3,CCON=C1COc2c1ccc(OCc1ccccc1/C(=N\OC)C(=O)NC)c2C [a-36],100
4,CCCON=C1COc2c1ccc(OCc1ccccc1/C(=N\OC)C(=O)NC)c2C [a-42],100
5,C#CCON=C1COc2c1ccc(OCc1ccccc1/C(=N\OC)C(=O)NC)c2C [a-71],100

# Same assay, conditions: conc. of active ingredient 100 ppm, 7 days after inoculation
row,SMILES,Preventive rate (%)
1,CNC(=O)C(OC)c1ccccc1COc1ccc2c(c1)OCC2=NOC (racemic) [a-11],100
2,CON=C1COc2cc(OCc3ccccc3/C(=N\OC)C(=O)OC)c(C)cc21 [a-26],100
3,CCON=C1COc2c1ccc(OCc1ccccc1/C(=N\OC)C(=O)NC)c2C [a-36],100
4,CCCON=C1COc2c1ccc(OCc1ccccc1/C(=N\OC)C(=O)NC)c2C [a-42],100
5,C#CCON=C1COc2c1ccc(OCc1ccccc1/C(=N\OC)C(=O)NC)c2C [a-71],100

# System: Pyricularia oryzae
# Assay: not given
# Format: in vivo
# Conditions: Rice blast; conc. of active ingredient 20 ppm; 7 days after inoculation
row,SMILES,Preventive rate (%)
1,CCON=C1COc2c1ccc(OCc1ccccc1/C(=N\OC)C(=O)NC)c2C [a-36],90
2,CCCON=C1COc2c1ccc(OCc1ccccc1/C(=N\OC)C(=O)NC)c2C [a-42],90
3,C#CCON=C1COc2c1ccc(OCc1ccccc1/C(=N\OC)C(=O)NC)c2C [a-71],89

# Same assay, conditions: Rice blast; conc. of active ingredient 100 ppm; 7 days after inoculation
row,SMILES,Preventive rate (%)
1,CCON=C1COc2c1ccc(OCc1ccccc1/C(=N\OC)C(=O)NC)c2C [a-36],99
2,CCCON=C1COc2c1ccc(OCc1ccccc1/C(=N\OC)C(=O)NC)c2C [a-42],98
3,C#CCON=C1COc2c1ccc(OCc1ccccc1/C(=N\OC)C(=O)NC)c2C [a-71],91

# System: Psecidoperonospora cubensis
# Assay: Effect on Cucumber downy mildew (preventive spray test)
# Format: in vivo
# Conditions: conc. of active ingredient 4 ppm, 7 days after inoculation
row,SMILES,Preventive rate (%)
1,CCCON=C1COc2c1ccc(OCc1ccccc1/C(=N\OC)C(=O)NC)c2C [a-42],100
2,C#CCON=C1COc2c1ccc(OCc1ccccc1/C(=N\OC)C(=O)NC)c2C [a-71],100

# Same assay, conditions: conc. of active ingredient 20 ppm, 7 days after inoculation
row,SMILES,Preventive rate (%)
1,CON=C1COc2cc(OCc3ccccc3/C(=N\OC)C(=O)OC)c(C)cc21 [a-26],100
2,CCON=C1COc2c1ccc(OCc1ccccc1/C(=N\OC)C(=O)NC)c2C [a-36],100
3,CCCON=C1COc2c1ccc(OCc1ccccc1/C(=N\OC)C(=O)NC)c2C [a-42],100
4,C#CCON=C1COc2c1ccc(OCc1ccccc1/C(=N\OC)C(=O)NC)c2C [a-71],100

# Same assay, conditions: conc. of active ingredient 100 ppm, 7 days after inoculation
row,SMILES,Preventive rate (%)
1,CON=C1COc2cc(OCc3ccccc3/C(=N\OC)C(=O)OC)c(C)cc21 [a-26],100
2,CCON=C1COc2c1ccc(OCc1ccccc1/C(=N\OC)C(=O)NC)c2C [a-36],100
3,CCCON=C1COc2c1ccc(OCc1ccccc1/C(=N\OC)C(=O)NC)c2C [a-42],100
4,C#CCON=C1COc2c1ccc(OCc1ccccc1/C(=N\OC)C(=O)NC)c2C [a-71],100

# System: Botrytis cinerea
# Assay: Effect on Cucumber gray mold (cotyledon paper disc test)
# Format: in vivo
# Conditions: conc. of active ingredient 20 ppm, 3 days after inoculation
row,SMILES,Preventive rate (%)
1,CNC(=O)C(OC)c1ccccc1COc1ccc2c(c1)OCC2=NOC (racemic) [a-11],40
2,CON=C1COc2cc(OCc3ccccc3/C(=N\OC)C(=O)OC)c(C)cc21 [a-26],72
3,C#CCON=C1COc2c1ccc(OCc1ccccc1/C(=N\OC)C(=O)NC)c2C [a-71],100

# Same assay, conditions: conc. of active ingredient 100 ppm, 3 days after inoculation
row,SMILES,Preventive rate (%)
1,CNC(=O)C(OC)c1ccccc1COc1ccc2c(c1)OCC2=NOC (racemic) [a-11],87
2,CON=C1COc2cc(OCc3ccccc3/C(=N\OC)C(=O)OC)c(C)cc21 [a-26],87
3,C#CCON=C1COc2c1ccc(OCc1ccccc1/C(=N\OC)C(=O)NC)c2C [a-71],100

# System: Erysiphe graminis
# Assay: Effects on Barley powdery mildew (preventive spray test)
# Format: in vivo
# Conditions: conc. of active ingredient 20 ppm, lesions counted seven days after inoculation
row,SMILES,Preventive rate (%)
1,CNC(=O)C(OC)c1ccccc1COc1ccc2c(c1)OCC2=NOC (racemic) [a-11],88
2,CCCON=C1COc2c1ccc(OCc1ccccc1/C(=N\OC)C(=O)NC)c2C [a-42],88
3,C#CCON=C1COc2c1ccc(OCc1ccccc1/C(=N\OC)C(=O)NC)c2C [a-71],100

# Same assay, conditions: conc. of active ingredient 100 ppm, lesions counted seven days after inoculation
row,SMILES,Preventive rate (%)
1,CNC(=O)C(OC)c1ccccc1COc1ccc2c(c1)OCC2=NOC (racemic) [a-11],100
2,CCCON=C1COc2c1ccc(OCc1ccccc1/C(=N\OC)C(=O)NC)c2C [a-42],100
3,C#CCON=C1COc2c1ccc(OCc1ccccc1/C(=N\OC)C(=O)NC)c2C [a-71],100

# System: Chochliobolus miyabeanus
# Assay: Effect on Rice brown spot (preventive spray test)
# Format: in vivo
# Conditions: conc. of active ingredient 4 ppm, 7 days after inoculation
row,SMILES,Preventive rate (%)
1,CCON=C1COc2c1ccc(OCc1ccccc1/C(=N\OC)C(=O)NC)c2C [a-36],69

# Same assay, conditions: conc. of active ingredient 20 ppm, 7 days after inoculation
row,SMILES,Preventive rate (%)
1,CCON=C1COc2c1ccc(OCc1ccccc1/C(=N\OC)C(=O)NC)c2C [a-36],93
2,CCCON=C1COc2c1ccc(OCc1ccccc1/C(=N\OC)C(=O)NC)c2C [a-42],85

# Same assay, conditions: conc. of active ingredient 100 ppm, 7 days after inoculation
row,SMILES,Preventive rate (%)
1,CCON=C1COc2c1ccc(OCc1ccccc1/C(=N\OC)C(=O)NC)c2C [a-36],96
2,CCCON=C1COc2c1ccc(OCc1ccccc1/C(=N\OC)C(=O)NC)c2C [a-42],91

# System: Phytophthora infestans
# Assay: not given
# Format: in vivo
# Conditions: Tomato late blight; conc. of active ingredient 20 ppm; 5 days after inoculation
row,SMILES,Preventive rate (%)
1,CON=C1COc2cc(OCc3ccccc3/C(=N\OC)C(=O)OC)c(C)cc21 [a-26],81
2,CCON=C1COc2c1ccc(OCc1ccccc1/C(=N\OC)C(=O)NC)c2C [a-36],91
3,CCCON=C1COc2c1ccc(OCc1ccccc1/C(=N\OC)C(=O)NC)c2C [a-42],98

# Same assay, conditions: Tomato late blight; conc. of active ingredient 100 ppm; 5 days after inoculation
row,SMILES,Preventive rate (%)
1,CON=C1COc2cc(OCc3ccccc3/C(=N\OC)C(=O)OC)c(C)cc21 [a-26],100
2,CCON=C1COc2c1ccc(OCc1ccccc1/C(=N\OC)C(=O)NC)c2C [a-36],98
3,CCCON=C1COc2c1ccc(OCc1ccccc1/C(=N\OC)C(=O)NC)c2C [a-42],98
